The source of these data is patent publication US20250114374A1, “BCL-2 INHIBITORS” (Newave Pharmaceutical Inc., priority 2021, published 2025).

In this experiment the test system is RS4; 11 with G101V mutation. The experiment in a line: In vitro anti-proliferation assay (ATPlite luminescence) in BCL-2-dependent ALL cell line RS4;11 with G101V mutation. The class given is cell-based. The note with it: read-out: RS411-G101V IC50. In outline:
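RS4;11 G101V cells at about 1×10^4 per well were exposed to a range of compound concentrations for about 72 h in medium with 10% FBS. Cellular ATP was measured by ATPlite luminescence after lysis, and IC50 was derived from the dose-response.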
On the technique in general: Cellular ATP, detected with luciferase, serves as a proxy for viable cell number.

Setting [1] is: cellular anti-proliferative IC50, about 72 hours, medium with 10% FBS, ATPlite.

Like-named read-outs stand apart in the source and are kept apart here.

Take `CC(C)Oc1ccccc1[C@@H]1CN([C@H](C)c2ccc(F)c(F)c2)CCN1C1CC2(CCN(c3ccc(C(=O)NS(=O)(=O)c4cc5c(c([N+](=O)[O-])c4)N[C@H](C4CCOCC4)CO5)c(N4c5cc6cc[nH]c6nc5O[C@H]5COCC[C@@H]54)c3)CC2)C1` [Example 242, 4-{2-[(2R)-4-[(1R)-1-(3,4-difluorophenyl)ethyl]-2-(2-isopropoxyphenyl)piperazin-1-yl]-7-azaspiro[3.5]nonan-7-yl}-2-[(3R,8S)-2,5-dioxa-9,15,17-triazatetracyclo[8.7.0.0^{3,8}.0^{12,16}]heptadeca-1(10),11,13,16-tetraen-9-yl]-N-[(3R)-5-nitro-3-(oxan-4-yl)-3,4-dihydro-2H-1,4-benzoxazin-7-ylsulfonyl]benzamide]: the IC50 under setting [1] amounted to 97.8 nM.

Take `CC(C)Oc1ccccc1[C@@H]1CN([C@@H](C)c2ccc(F)c(F)c2)CCN1C1CC2(CCN(c3ccc(C(=O)NS(=O)(=O)c4cc5c(c([N+](=O)[O-])c4)N[C@H](C4CCOCC4)CO5)c(N4c5cc6cc[nH]c6nc5O[C@H]5COCC[C@@H]54)c3)CC2)C1` [Example 243, 4-{2-[(2R)-4-[(1S)-1-(3,4-difluorophenyl)ethyl]-2-(2-isopropoxyphenyl)piperazin-1-yl]-7-azaspiro[3.5]nonan-7-yl}-2-[(3R,8S)-2,5-dioxa-9,15,17-triazatetracyclo[8.7.0.0^{3,8}.0^{12,16}]heptadeca-1(10),11,13,16-tetraen-9-yl]-N-[(3R)-5-nitro-3-(oxan-4-yl)-3,4-dihydro-2H-1,4-benzoxazin-7-ylsulfonyl]benzamide]: the half-inhibitory concentration (IC50) under setting [1] amounted to 22.2 nM. In the case of `CC(C)Oc1ccccc1[C@@H]1CN(S(=O)(=O)c2ccc(F)c(F)c2)CCN1C1CC2(CCN(c3ccc(C(=O)NS(=O)(=O)c4cc5c(c([N+](=O)[O-])c4)N[C@H](C4CCOCC4)CO5)c(N4c5cc6cc[nH]c6nc5O[C@H]5COCC[C@@H]54)c3)CC2)C1` [Example 245, 4-(2-((R)-4-((3,4-difluorophenyl)sulfonyl)-2-(2-isopropoxyphenyl)piperazin-1-yl)-7-azaspiro[3.5]nonan-7-yl)-N-(((R)-5-nitro-3-(tetrahydro-2H-pyran-4-yl)-3,4-dihydro-2H-benzo[b][1,4]oxazin-7-yl)sulfonyl)-2-((5aS,9aR)-6,7,9,9a-tetrahydro-1H-pyrano[3,4-b]pyrrolo[3′,2′:5,6]pyrido[3,2-e][1,4]oxazin-5(5aH)-yl)benzamide], the IC50 (Homo sapiens, RS4-11, 72 h) amounted to 290 nM. For `CC[C@H](c1ccc(F)c(F)c1)N1CCN(C2CC3(CCN(c4ccc(C(=O)NS(=O)(=O)c5cc6c(c([N+](=O)[O-])c5)N[C@H](C5CCOCC5)CO6)c(N5c6cc7cc[nH]c7nc6O[C@H]6COCC[C@@H]65)c4)CC3)C2)[C@H](c2ccccc2OC(C)C)C1` [Example 246, 4-(2-((R)-4-((R)-1-(3,4-difluorophenyl)propyl)-2-(2-isopropoxyphenyl)piperazin-1-yl)-7-azaspiro[3.5]nonan-7-yl)-N-(((R)-5-nitro-3-(tetrahydro-2H-pyran-4-yl)-3,4-dihydro-2H-benzo[b][1,4]oxazin-7-yl)sulfonyl)-2-((5aS,9aR)-6,7,9,9a-tetrahydro-1H-pyrano[3,4-b]pyrrolo[3′,2′:5,6]pyrido[3,2-e][1,4]oxazin-5(5aH)-yl)benzamide], the IC50 (Homo sapiens, RS4-11, 72 h) came out at 209 nM. Take `CC[C@@H](c1ccc(F)c(F)c1)N1CCN(C2CC3(CCN(c4ccc(C(=O)NS(=O)(=O)c5cc6c(c([N+](=O)[O-])c5)N[C@H](C5CCOCC5)CO6)c(N5c6cc7cc[nH]c7nc6O[C@H]6COCC[C@@H]65)c4)CC3)C2)[C@H](c2ccccc2OC(C)C)C1` [Example 247, 4-(2-((R)-4-((S)-1-(3,4-difluorophenyl)propyl)-2-(2-isopropoxyphenyl)piperazin-1-yl)-7-azaspiro[3.5]nonan-7-yl)-N-(((R)-5-nitro-3-(tetrahydro-2H-pyran-4-yl)-3,4-dihydro-2H-benzo[b][1,4]oxazin-7-yl)sulfonyl)-2-((5aS,9aR)-6,7,9,9a-tetrahydro-1H-pyrano[3,4-b]pyrrolo[3′,2′:5,6]pyrido[3,2-e][1,4]oxazin-5(5aH)-yl)benzamide]: the IC50 (Homo sapiens, RS4-11, 72 h) stood at 45.7 nM.

Consider `CC(C)Oc1ccccc1[C@@H]1CN([C@@H]2COCc3c2ccc(F)c3F)CCN1C1CC2(CCN(c3ccc(C(=O)NS(=O)(=O)c4cc5c(c([N+](=O)[O-])c4)N[C@H](C4CCOCC4)CO5)c(N4c5cc6cc[nH]c6nc5O[C@H]5COCC[C@@H]54)c3)CC2)C1` [Example 248, 4-{2-[(2R)-4-[(4S)-7,8-difluoro-3,4-dihydro-1H-2-benzopyran-4-yl]-2-(2-isopropoxyphenyl)piperazin-1-yl]-7-azaspiro[3.5]nonan-7-yl}-2-[(3R,8S)-2,5-dioxa-9,15,17-triazatetracyclo[8.7.0.0^{3,8}.0^{12,16}]heptadeca-1(10),11,13,16-tetraen-9-yl]-N-[(3R)-5-nitro-3-(oxan-4-yl)-3,4-dihydro-2H-1,4-benzoxazin-7-ylsulfonyl]benzamide], for which, under setting [1], the IC50 stood at 9.68 nM. For `CC(C)Oc1ccccc1[C@@H]1CN([C@H]2COCc3c2ccc(F)c3F)CCN1C1CC2(CCN(c3ccc(C(=O)NS(=O)(=O)c4cc5c(c([N+](=O)[O-])c4)N[C@H](C4CCOCC4)CO5)c(N4c5cc6cc[nH]c6nc5O[C@H]5COCC[C@@H]54)c3)CC2)C1` [Example 249, 4-{2-[(2R)-4-[(4R)-7,8-difluoro-3,4-dihydro-1H-2-benzopyran-4-yl]-2-(2-isopropoxyphenyl)piperazin-1-yl]-7-azaspiro[3.5]nonan-7-yl}-2-[(3R,8S)-2,5-dioxa-9,15,17-triazatetracyclo[8.7.0.0^{3,8}.0^{12,16}]heptadeca-1(10),11,13,16-tetraen-9-yl]-N-[(3R)-5-nitro-3-(oxan-4-yl)-3,4-dihydro-2H-1,4-benzoxazin-7-ylsulfonyl]benzamide], the IC50 under setting [1] was 12 nM. Take `COc1c(N2CCOCC2)ncc2c1COC[C@H]2N1CCN(C2CC3(CCN(c4ccc(C(=O)NS(=O)(=O)c5cc6c(c([N+](=O)[O-])c5)N[C@H](C5CCOCC5)CO6)c(N5c6cc7cc[nH]c7nc6O[C@H]6COCC[C@@H]65)c4)CC3)C2)[C@H](c2ccccc2OC(C)C)C1` [Example 250, 2-[(3R,8S)-2,5-dioxa-9,15,17-triazatetracyclo[8.7.0.0^{3,8}.0^{12,16}]heptadeca-1(10),11,13,16-tetraen-9-yl]-4-{2-[(2R)-2-(2-isopropoxyphenyl)-4-[(4S)-8-methoxy-7-(morpholin-4-yl)-1H,3H,4H-pyrano[4,3-c]pyridin-4-yl]piperazin-1-yl]-7-azaspiro[3.5]nonan-7-yl}-N-[(3R)-5-nitro-3-(oxan-4-yl)-3,4-dihydro-2H-1,4-benzoxazin-7-ylsulfonyl]benzamide]: under setting [1], the IC50 stood at 10.1 nM.

In the case of `COc1c(N2CCOC[C@@H]2C)ncc2c1COC[C@@H]2N1CCN(C2CC3(CCN(c4ccc(C(=O)NS(=O)(=O)c5cc6c(c([N+](=O)[O-])c5)N[C@H](C5CCOCC5)CO6)c(N5c6cc7cc[nH]c7nc6O[C@H]6COCC[C@@H]65)c4)CC3)C2)[C@H](c2ccccc2OC(C)C)C1` [Example 251, 2-[(3R,8S)-2,5-dioxa-9,15,17-triazatetracyclo[8.7.0.0^{3,8}.0^{12,16}]heptadeca-1(10),11,13,16-tetraen-9-yl]-4-{2-[(2R)-2-(2-isopropoxyphenyl)-4-[(4R)-8-methoxy-7-[(3S)-3-methylmorpholin-4-yl]-1H,3H,4H-pyrano[4,3-c]pyridin-4-yl]piperazin-1-yl]-7-azaspiro[3.5]nonan-7-yl}-N-[(3R)-5-nitro-3-(oxan-4-yl)-3,4-dihydro-2H-1,4-benzoxazin-7-ylsulfonyl]benzamide], the IC50 under setting [1] stood at 26.9 nM. Regarding `Cc1ccccc1[C@@H]1CN(Cc2cnc(N3CCOC[C@@H]3C)c3c2C(C)(C)CCO3)CCN1C1CC2(CCN(c3ccc(C(=O)NS(=O)(=O)c4cc5c(c([N+](=O)[O-])c4)N[C@H](C4CCOCC4)CO5)c(N4c5cc6cc[nH]c6nc5O[C@H]5COCC[C@@H]54)c3)CC2)C1` [Example 252, 4-(2-((R)-4-((4,4-dimethyl-8-((S)-3-methylmorpholino)-3,4-dihydro-2H-pyrano[2,3-c]pyridin-5-yl)methyl)-2-(o-tolyl)piperazin-1-yl)-7-azaspiro[3.5]nonan-7-yl)-N-(((R)-5-nitro-3-(tetrahydro-2H-pyran-4-yl)-3,4-dihydro-2H-benzo[b][1,4]oxazin-7-yl)sulfonyl)-2-((5aS,9aR)-6,7,9,9a-tetrahydro-1H-pyrano[3,4-b]pyrrolo[3′,2′:5,6]pyrido[3,2-e][1,4]oxazin-5(5aH)-yl)benzamide], under “Homo sapiens, RS4-11, 72 h”, the concentration for half-maximal inhibition (IC50) was determined as 1.88 nM. On the same count and under the same terms, as for `CC(C)Oc1ccccc1[C@@H]1CN(Cc2cccnc2)CCN1C1CC2(CCN(c3ccc(C(=O)NS(=O)(=O)c4cc5c(c([N+](=O)[O-])c4)N[C@H](C4CCOCC4)CO5)c(N4c5cc6cc[nH]c6nc5O[C@H]5COCC[C@@H]54)c3)CC2)C1` [Example 253, 4-(2-((R)-2-(2-isopropoxyphenyl)-4-(pyridin-3-ylmethyl)piperazin-1-yl)-7-azaspiro[3.5]nonan-7-yl)-N-(((R)-5-nitro-3-(tetrahydro-2H-pyran-4-yl)-3,4-dihydro-2H-benzo[b][1,4]oxazin-7-yl)sulfonyl)-2-((5aS,9aR)-6,7,9,9a-tetrahydro-1H-pyrano[3,4-b]pyrrolo[3′,2′:5,6]pyrido[3,2-e][1,4]oxazin-5(5aH)-yl)benzamide], the figure is 10.2 nM. In the case of `Cc1ccc(CN2CCN(C3CC4(CCN(c5ccc(C(=O)NS(=O)(=O)c6cc7c(c([N+](=O)[O-])c6)N[C@H](C6CCOCC6)CO7)c(N6c7cc8cc[nH]c8nc7O[C@H]7COCC[C@@H]76)c5)CC4)C3)[C@H](c3ccccc3OC(C)C)C2)cn1` [Example 254, 4-(2-((R)-2-(2-isopropoxyphenyl)-4-((6-methylpyridin-3-yl)methyl)piperazin-1-yl)-7-azaspiro[3.5]nonan-7-yl)-N-(((R)-5-nitro-3-(tetrahydro-2H-pyran-4-yl)-3,4-dihydro-2H-benzo[b][1,4]oxazin-7-yl)sulfonyl)-2-((5aS,9aR)-6,7,9,9a-tetrahydro-1H-pyrano[3,4-b]pyrrolo[3′,2′:5,6]pyrido[3,2-e][1,4]oxazin-5(5aH)-yl)benzamide], the IC50 (Homo sapiens, RS4-11, 72 h) is 3.19 nM.

The term IC50 denotes the concentration needed to halve the response being measured.
